Data taken from PMC12915096, “AI‐Driven Acceleration of Fluorescence Probe Discovery” (Advanced Science, 2025).
pIC50, pKd, pKi: −log10 of the molar value.

Experiments:
tau aggregates [1] = biological target: T1, tau aggregates (Homo sapiens, UniProt P10636); test: Fluorescence turn-on response / spectral assay with tau aggregates; assay type: binding
T1 construct: purchased QYAOBIO
Description: (§1) To evaluate the fluorescence turn‐on responses to targets, protein (2 µM) were incubated with probe solutions (2 µM, PBS containing 10% DMSO) for 60 min at room temperature. For probe B3, specific experiments involved co‐incubation of 5 µM B3 with 10 µM TDP‐43 aggregates for 60 min.

[2] = biological target: tau aggregates in AD brain sections (Homo sapiens, UniProt P10636); test: Pathological staining, colocalization with anti-tau antibody
Description: (§2) Human brain tissues of AD or ALS patients and human neuroblastoma tissues were immersed in xylene three times for 5 min to remove paraffin, followed by two 10 min washes with a series of diluted alcohols (100, 90%, 70%, and 50% ethanol in dd water, v/v). Following PBS washing, heat‐mediated antigen retrieval was per‐ formed in 10 mM citrate buffer (pH 9.0) using a temperature‐gradient protocol: samples were gradually heated to boiling point through sequential low‐to‐high intensity thermal exposure (total 15 min duration), followed by natural cooling to ambient temperature. […] To avoid the fluorescence overlap between antibody staining and probe labeling, specific secondary antibodies were selected. […]
(§3) The fluorescence images of tissues were acquired by a scanning microscope (KF‐FL‐020, KFBIO).
(§4) All experiments were conducted over 3–5 independent experiments, and error bars represent the S.E.M across these runs. […] Statistical analysis was performed using GraphPad Prism 8.3.0, with significance determined by one‐way ANOVA followed by Tukey's or Dunnett's post hoc tests. […] Colocalization analysis was performed using the Pearson's correlation coefficient (PCC) calculated via ImageJ software.

tau aggregates [3] = biological target: T1, tau aggregates; test: Dissociation constant measurement by fluorescence titration; assay type: binding; conditions: tau aggregates titrated with probe, 37°C 1 h
Description: The human recombinant tau protein (1 mg, QYAOBIO) was dissolved in PBS containing 110 µM heparin sodium to a final concentration of 55 µM. The solution was shake vigorously (100 rpm, Crystal IS‐RDV1) at 37°C for 72 h. Similarly, the human recombinant TDP‐43 protein (0.9 mg, Sangon Biotech) was dissolved in 1 mL Tris buffer (50 mM Tris, 300 mM NaCl, 10% Glycerol, pH 8.0) and was shake vigorously (200 rpm, Crystal IS‐RDV1) at 37°C for 48 h. Aggregates formation was monitored and verified using ThT fluorescence assay. The resulting aggregates was divided into aliquots and stored at −20°C before use.
To 1 µM protein solution in PBS containing 10% DMSO, different concentrations of probe was added (final concentration 0, 1, 2, 5, 8, 10, 20, 50, 80, 100, 200, 500, 800, and 1000 nM). The mixture was dispensed into 96‐well plates and incubated at 37°C for 1 h. The fluorescence intensity of the samples was recorded at maximum emission wavelength of probe by using a microplate reader (PerkinElmer, VICTOR Nivo^TM). Dose‐ response curves were generated by plotting fluorescence intensity against probe concentration, and equilibrium dissociation constants were calculated via nonlinear regression analysis in GraphPad Prism.

[4] = Selectivity evaluation (fluorescence response to non-target analytes); conditions: probe 1 µM, analytes 2 µM, 60 min
Description: For selectivity evaluation, the probes were diluted to a final concentration of 1 µM and treated with 2 µM of various analytes. After 60 min of incubation at room temperature, fluorescence intensity was recorded at the specific excitation and emission wavelengths for each probe. The maximum emission wavelength intensity was plotted against the respective analytes.

[5] = Photophysical property characterization (absorption/emission spectra, quantum yield); assay type: physicochemical; conditions: for λAbs b, spectra assays data / λEm b, spectra assays data / ε: acetonitrile (MeCN); for λAbs b, spectra assays data / λEm b, spectra assays data: 10 µM, Extended Data Table 1; for ε: in M-1·cm-1 (unit assumed)
Description: For absorption and emission spectra measurements, the molecules were diluted to 10 µM in various solvents, including EtOH, DMSO, MeCN, H2O, and MeOH. Prior to analysis, the prepared samples were equilibrated at 25°C for 5 min to ensure consistent conditions. Subsequently, their absorption and emission spectra were measured. The absolute fluorescence quantum yield of these probes was measured using the FLS1000 Photoluminescence Spectrometer (Edinburgh Instruments Ltd.).

[6] = Photostability evaluation under continuous excitation; assay type: physicochemical; conditions: 3 h illumination, PBS with 10% DMSO
Description: For photostability evaluation, PE859, 859‐1, or 859‐1 were diluted to 10 µM in PBS containing 10% DMSO. The solutions were loaded into a fluorescence spectrometer and the fluorescent intensity at maximum emission wavelength was recorded under continuous excitation for 180 min.

[7] = biological target: T2, TDP-43 aggregates in ALS brain sections (Homo sapiens, UniProt Q13148); test: Pathological staining, colocalization with anti-TDP-43 antibody; conditions: brain sections from an ALS patient
T2 construct: from tissue; host or cells: paraffin sections of human ALS patient brain
Description: as §2, §3, §4

TDP-43 aggregates = biological target: T3, TDP-43 aggregates (Homo sapiens, UniProt Q13148); test: Fluorescence turn-on response / spectral assay with TDP-43 aggregates; assay type: binding
T3 construct: purchased Sangon Biotech
Description: as §1

tau = conditions: previous reports; ref [36], [37], [38]; cited from earlier work
BCL-2 [8] = biological target: T4, BCL-2 (Homo sapiens, UniProt P10415); conditions: previous reports; ref [36], [37], [38]; cited from earlier work
BCL-2 [9] = biological target: T4, BCL-2; test: Fluorescence turn-on response / spectral assay with BCL-2; assay type: binding
Description: as §1

[10] = biological target: T5, BCL-2 in U2932 and SU-DHL-6 cells (Homo sapiens, UniProt P10415); test: Cell imaging with anti-BCL-2 co-staining; assay type: cell-based; conditions: U2932 and SU-DHL-6, 5 µM obatoclax
T5 construct: endogenous in cells; host or cells: U2932 and SU-DHL-6
Description: Cells of the logarithmic growth phase were taken and transferred them to centrifuge tubes (5 × 10^4 cells/mL). After centrifugation, the culture medium was discarded. Cells were washed once with PBS, centrifuged, and the supernatant aspirated. One milliliter of ice methanol was added, followed by gentle resuspension and fixation for 30 min. After centrifugation, the supernatant was discarded, and cells were washed twice with PBS. Subsequently, 500 µL of 5% BSA blocking solution was added, and cells were gently resuspended before transfer to a 35‐mm confocal dish for sealing and incubation at room temperature for 1 h. The cell suspension was then added into a centrifuge tube, centrifuged to remove blocking solution, and resuspended in 500 µL of primary antibody solution (Proteintech, 12789‐1‐AP, 1:500). Cells were transferred to a confocal dish and incubated overnight at 4°C. After centrifugation to remove primary antibody, cells were washed twice with PBS. Next, 500 µL of secondary antibody (Beyotime, A0468, 1:500) was added, followed by incubation at room temperature for 1 h. Following centrifugation, the cells were washed twice with PBS and stained with 500 µL of DAPI solution (Beyotime, C1006) for 10 min at room temperature. […] After centrifugation, cells were washed twice with PBS, resuspended in 1 mL PBS, transferred to a confocal dish, and imaged with a laser confocal microscope.

[11] = biological target: T6, BCL-2 in neuroblastoma tumor tissue sections (Homo sapiens, UniProt P10415); test: Pathological staining, colocalization with anti-BCL-2 antibody
T6 construct: from tissue; host or cells: human neuroblastoma tissue sections
Description: as §2, §3, §4

[12] = system: SU-DHL-6 lymphoma xenografts; test: Tumor model ex vivo fluorescence imaging; assay type: in vivo, mice; conditions: 10 mg/kg i.v., 4 h post-injection
Description: SU-DHL-6 cells were suspended in 100 μL of 50% Matrigel / PBS mixture. Hun dred microliters of SU-DHL-6 cell suspensions, corresponding to 1.8 × 10^6 cells per mouse, were subcutaneously injected into the left flank region of NSFG mice (female, aged 8-10 weeks). The mice were monitored for tumor formation. […] Mice were sacrificed after 4 h and tissues (heart, liver, spleen, lung, kidney, and tumor) were obtained. The fluorescence signals in tissues were recorded using the […] imaging system.

T4 sequence (P10415 whole entry, species assumed): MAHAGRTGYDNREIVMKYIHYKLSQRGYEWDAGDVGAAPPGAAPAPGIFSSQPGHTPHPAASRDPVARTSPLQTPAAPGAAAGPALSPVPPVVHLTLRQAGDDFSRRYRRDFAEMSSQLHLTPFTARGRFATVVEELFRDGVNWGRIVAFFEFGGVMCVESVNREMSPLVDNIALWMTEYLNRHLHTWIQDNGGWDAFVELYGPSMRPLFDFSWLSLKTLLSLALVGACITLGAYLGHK
T1 sequence (P10636 1-441 isoform P10636-8): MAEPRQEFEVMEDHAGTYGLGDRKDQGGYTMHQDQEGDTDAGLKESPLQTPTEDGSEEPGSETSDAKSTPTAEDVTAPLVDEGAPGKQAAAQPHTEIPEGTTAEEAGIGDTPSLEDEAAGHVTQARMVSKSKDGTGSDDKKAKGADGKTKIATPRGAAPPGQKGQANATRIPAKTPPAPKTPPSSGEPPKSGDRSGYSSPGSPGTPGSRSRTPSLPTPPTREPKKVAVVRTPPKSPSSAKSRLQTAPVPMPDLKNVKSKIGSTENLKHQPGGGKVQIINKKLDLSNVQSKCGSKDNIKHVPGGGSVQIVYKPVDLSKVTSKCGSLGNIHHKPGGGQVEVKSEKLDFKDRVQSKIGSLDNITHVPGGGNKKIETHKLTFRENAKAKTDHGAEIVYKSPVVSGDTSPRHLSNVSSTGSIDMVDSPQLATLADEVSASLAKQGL
T3 sequence (Q13148 whole entry): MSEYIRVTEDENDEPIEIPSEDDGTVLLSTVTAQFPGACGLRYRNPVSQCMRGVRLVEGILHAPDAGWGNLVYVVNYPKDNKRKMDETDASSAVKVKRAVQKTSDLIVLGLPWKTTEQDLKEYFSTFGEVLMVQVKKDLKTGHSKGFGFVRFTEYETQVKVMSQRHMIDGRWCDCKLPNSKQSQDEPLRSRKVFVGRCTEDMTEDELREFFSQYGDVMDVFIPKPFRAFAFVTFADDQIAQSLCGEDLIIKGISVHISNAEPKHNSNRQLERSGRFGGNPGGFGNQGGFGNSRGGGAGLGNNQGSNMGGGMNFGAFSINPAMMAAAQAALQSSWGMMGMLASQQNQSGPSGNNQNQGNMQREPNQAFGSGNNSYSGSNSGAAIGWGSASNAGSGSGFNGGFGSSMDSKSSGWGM
tau aggregates in AD brain sections, sequence (P10636 623-695 limits assumed): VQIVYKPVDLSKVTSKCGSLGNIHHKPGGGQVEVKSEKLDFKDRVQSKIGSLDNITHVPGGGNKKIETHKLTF
T2 sequence (Q13148 whole entry): as the sequence (Q13148 whole entry) above
T6 sequence (P10415 whole entry): as the sequence (P10415 whole entry, species assumed) above
T5 sequence (P10415 whole entry): as the sequence (P10415 whole entry, species assumed) above

| Compound | Pearson Correlation Coefficient (PCC) with anti-tau antibody staining [2] | λAbs ([5]; DMSO) [nm] | λEm ([5]; DMSO) [nm] | λAbs ([5]; EtOH, Extended Data Table 5) [nm] | λEm ([5]; EtOH, Extended Data Table 5) [nm] | λAbs ([5]; H2O, Extended Data Table 5) [nm] | Quantum yield experimental ([5]; MeCN) | log10ε experimental ([5]; MeCN) | λAbs ([5]; MeCN, Extended Data Table 5) [nm] | λEm ([5]; MeCN, Extended Data Table 5) [nm] | λAbs ([5]; MeOH, Extended Data Table 5) [nm] | λEm ([5]; MeOH, Extended Data Table 5) [nm] | λAbs b, spectra assays data [5] [nm] | λEm b, spectra assays data [5] [nm] | ε [5] | Fluorescence turn-on response to tau aggregates (tau aggregates [1]) | other results |
| --- | --- | --- | --- | --- | --- | --- | --- | --- | --- | --- | --- | --- | --- | --- | --- | --- | --- |
| COc1cc(OCc2ccccn2)ccc1/C=C/C1=[O+][B-](F)(F)OC(/C=C/c2ccc3cc[nH]c3c2)=C1 [859-1] | 0.95 | 539 | 610 | 513 | 588 | 510 | 0.0063 | 4.9784 | 514 | 594 | 514 | 595 |  |  |  | substantially increased fluorescence intensity | Emission redshift when incubated with tau aggregates (tau aggregates [1]; probe 2 µM, tau aggregates 4 µM): 6 nm; pKd (tau aggregates [3]): 6.66; Fluorescence response to non-target analytes (selectivity) [4]: minimal response to other analytes; Emission redshift compared to PE859 ([5]; MeCN): 192 nm; Fluorescence intensity variation under continuous illumination [6]: 152% |
| Cc1ccc(-n2c(/C=C\c3ccc(F)c(F)c3)nc3ccccc3c2=O)c(C)c1 [B6] |  |  |  |  |  |  |  |  |  |  |  |  | 330 | 450 | 20200 |  |  |
| COc1cc(OCc2ccccn2)ccc1/C=C/c1cc(/C=C/c2ccc3cc[nH]c3c2)[nH]n1 [PE859] | 0.85 | 343 | 408 | 335 | 397 | 352 | 0.1223 | 4.9675 | 338 | 402 | 337 | 410 | 335 |  | 92780 | most significant fluorescence enhancement | Blue shift in emission maximum upon binding to tau aggregates (tau aggregates [1]): 10 nm; pIC50 (tau): 6.18; λEm ([5]; H2O, Extended Data Table 5): 422 nm |
| COC1=CC(c2cc3ccccc3[nH]2)=N/C1=C\c1[nH]c(C)cc1C [obatoclax] |  |  |  |  |  |  | 0.0069 | 4.5902 |  |  |  |  | 480 | 540 | 38920 |  | pKi (BCL-2 [8]): 6.66; Blue shift of emission in the presence of BCL-2 (BCL-2 [9]): 7 nm; Fluorescence turn-on response to BCL-2 (BCL-2 [9]): most significant fluorescence enhancement; Detection of BCL-2 in overexpressing cell lines [10]: effectively detected; PCC with anti-BCL-2 antibody staining [11]: 0.80; Accumulation in tumors versus other organs [12]: higher accumulation in tumors compared to other organs |

More lines, main results first:

| Pearson Correlation Coefficient (PCC) with anti-tau antibody staining [2] | λAbs ([5]; DMSO) [nm] | λEm ([5]; DMSO) [nm] | λAbs ([5]; EtOH, Extended Data Table 5) [nm] | λEm ([5]; EtOH, Extended Data Table 5) [nm] | λAbs ([5]; H2O, Extended Data Table 5) [nm] | Quantum yield experimental ([5]; MeCN) | log10ε experimental ([5]; MeCN) | λAbs ([5]; MeCN, Extended Data Table 5) [nm] | λEm ([5]; MeCN, Extended Data Table 5) [nm] | λAbs ([5]; MeOH, Extended Data Table 5) [nm] | λEm ([5]; MeOH, Extended Data Table 5) [nm] | λAbs b, spectra assays data [5] [nm] | λEm b, spectra assays data [5] [nm] | ε [5] | Compound | Fluorescence turn-on response to tau aggregates (tau aggregates [1]) | other results |
| --- | --- | --- | --- | --- | --- | --- | --- | --- | --- | --- | --- | --- | --- | --- | --- | --- | --- |
|  |  |  |  |  |  | 0.2891 | 4.2923 |  |  |  |  | 370 | 443 | 19600 | Cc1ccc(Cl)cc1NC(=O)c1cc2c(=O)n3cccc(C)c3nc2n1C [B3] |  | PCC with anti-TDP-43 antibody staining [7]: 0.95; Blue shift of emission upon interaction with TDP-43 aggregates (TDP-43 aggregates): 30 nm; Fluorescence turn-on response to TDP-43 aggregates (TDP-43 aggregates): most significant fluorescence enhancement |
|  |  |  |  |  |  |  |  |  |  |  |  | 382 | 450 | 19800 | Cn1c(C(=O)Nc2ccc(OC(F)(F)F)cc2)cc2c(=O)n3ccccc3nc21 [B5] |  |  |
